Results taken from patent publication US7541371B2, “Method for treating a motor neuron disease” (Eisai R&D Management Co., Ltd., priority 2006, dated 2009).
Blank lines part the entries; values can stand above or below the compound they belong to.

Key:
[1] = target: T1, serotonin 2 receptor (Mus musculus, UniProt P35363); test: Mouse head twitch behavior test (tryptamine-induced); format: in vivo; conditions: tryptamine 30 mg/kg i.v.; test compound 15 min before; FIG. 7
T1 construct: known to induce mouse head twitch behavior through a serotonin 2 receptor; from tissue; host or cells: living mouse (in vivo behaviour test)
Procedure: The serotonin 2 receptor antagonist activity of test compounds was determined by a mouse head twitch behavior test. Tryptamine is a serotonin 2 receptor agonist and is known to induce mouse head twitch behavior through a serotonin 2 receptor. Accordingly, the serotonin 2 receptor antagonist activity of the test compounds can be evaluated based on the head twitch behavior by tryptamine. Tryptamine was administered intravenously to mice at 30 mg/kg, and the number of times of appearance of the head twitch within one min after the start of administration counted. The test compounds (compounds 1 and 4) were administered 15 min before the intravenous administration of tryptamine.
[^3H]8-hydroxy-dipropylaminotetralin is known to be used for the measurement of binding of test compounds to serotonin 1A receptors (European Journal of Pharmacology, 90, p. 151-153, 1983.). Further, [^3H]ketanserin is known to be used for the measurement of binding of test compounds to serotonin 2A receptors (Brian Dean and Wendy Hayes, Schizophrenia Research, 21, p. 133-139, 1996.). Furthermore, the test on mouse head twitch behavior with tryptamine is known to be used for the measurement of the serotonin 2 receptor antagonist activity of test compounds (Yamada J., et al., European Journal of Pharmacology, 140, p. 323-330, 1987; and Yamada J., et al., Neuropharmacology, 26, p. 49-53, 1987.).

[2] = tested on: rat motor neuron cells; test: Inhibition of 5HT toxicity in rat motor neuron primary pure culture system; format: cell-based; conditions: survival three days after seeding; for Inhibition of 5HT toxicity (survival rate): antagonist added 5 to 10 min before 5HT, FIG. 2, FIG. 3
Procedure: (§1) Based on the results of cell measurement, the rat motor neuron cells were diluted with the culture solution to 1.1 to 1.2×10^4 cells/mL. Greiner 4-well dishes previously coated with poly-L-ornithine/laminin were seeded with the cell suspension at 90 μL/well with a 1 mL Pipetman. […] The initial viable cell count was measured three hr after the addition of serotonin (5HT). The viable cell count was again measured three days after the cell seeding, and the survival rate was calculated based on the initial viable cell count. The cell count measurement was carried out under a phase-contrast microscope using marks previously applied on the backside of the Greiner 4-well dish as a reference.
as §1

[3] = tested on: rat motor neuron cells; test: Evaluation of toxicity of 5HT in rat motor neuron primary pure culture system; format: cell-based
Procedure: Rat motor neuron cells were subjected to pure culture in the presence of 30 ng/mL BDNF for three days, and toxicity of serotonin (5HT) was evaluated.
The rat motor neuron primary pure culture was carried out by a method which is modification of Nishijima et al. method (Nishijima C. et al., J Neurochem 76, 383-390(2001)) by incorporating a purification method and the like in the Nishijima et al. method.
A necessary number of Greiner-4-well dishes (10 mm i.d. wells) (Greiner bio-one) were provided, and 0.15 M sodium borate buffer (pH 8.3) containing 0.5 mg/mL poly-L-ornithine was added at 100 μL/well followed by standing at 4° C. overnight. Ornithine was removed by suction, the residue was washed three times with PBS(−), and L-15 (CO2) containing 10 μg/mL laminin (Gibco-BRL) was spread at 50 μL/well. […]
Wistar pregnant rats (fifteen days pregnant) (Tokyo Laboratory Animals Science Co., Ltd.) were etherized and were then sacrificed by cervical dislocation. […] One hr after the start of the culture, serotonin (serotonin creatinine sulfate complex, Sigma) or glutamate (Sigma) was added thereto, and, three hr after that, the initial viable cell count was measured. The viable cell count was again measured three days after the cell seeding, and the survival rate was calculated based on the initial viable cell count. […]

[4] = target: T2, 5-HT1A receptor (Sus scrofa, UniProt A0A4X1UTF5); test: Test on affinity for serotonin 1A receptor ([3H]MPPF, hippocampus membrane fraction); format: binding, swine; conditions: low affinity IC50 divided by high affinity IC50; not more than 1 = no intrinsic activity, not less than 2 = intrinsic activity
T2 construct: to a swine hippocampus membrane fraction; from tissue; host or cells: swine hippocampus
T2 sequence (A0A4X1UTF5 1-422): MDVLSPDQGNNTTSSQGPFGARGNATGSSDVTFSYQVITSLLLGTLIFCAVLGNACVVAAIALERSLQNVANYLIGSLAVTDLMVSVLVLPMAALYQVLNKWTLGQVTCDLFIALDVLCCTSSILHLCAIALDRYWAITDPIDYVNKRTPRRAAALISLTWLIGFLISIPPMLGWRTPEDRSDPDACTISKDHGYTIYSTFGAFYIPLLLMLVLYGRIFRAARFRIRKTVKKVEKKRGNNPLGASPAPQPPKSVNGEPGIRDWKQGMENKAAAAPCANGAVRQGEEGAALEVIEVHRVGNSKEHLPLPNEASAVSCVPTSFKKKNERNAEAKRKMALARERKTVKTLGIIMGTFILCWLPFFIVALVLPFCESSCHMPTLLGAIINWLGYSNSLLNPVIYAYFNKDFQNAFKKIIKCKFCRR
Procedure: The affinity of test compounds for the 5-HT1A receptor was determined by an experiment for inhibition of a test compound against the binding of [^3H]-4-(2′-Methoxy)phenyl-1-[2′-(N-2″-pyridinyl)-p-fluorobenzamido]ethyl-piperazine (MPPF), selectively bound to the 5-HT1A receptor, to a swine hippocampus membrane fraction. The 5-HT1A receptor, which is a G protein binding receptor, is brought to a G protein bound state upon the addition of MgCl2, and is brought to a G protein nonbound state upon the addition of guanylylimidodiphosphate (Gpp(NH)p). It is generally known that a G protein receptor agonist has stronger affinity for the G protein bound receptor depending upon the level of the intrinsic activity. Accordingly, the affinity of a test compound for the receptor in a G protein nonbound state and the affinity of the test compound for the receptor in a G protein bound state were determined and compared with each other to estimate the level of the intrinsic activity of the test compound.
The greater this value, the higher the intrinsic activity.
Swine hippocampus was homogenized in an ice-cooled 50 mM Tris hydrochloride buffer (pH 7.4; hereinafter referred to as buffer A). The suspension was centrifuged at 40,000×g for 15 min. The resultant sediment was suspended in buffer A, and the suspension was then centrifuged at 40,000×g for 15 min. The same procedure was further repeated twice or three times. The finally obtained sediment was suspended in buffer A in an amount of about ten times larger than the wet weight of the swine hippocampus to prepare a membrane fraction which was then stored at −80° C. until use.
A mixture (0.5 mL) for incubation, containing an appropriate amount of the membrane fraction, a test compound in a desired concentration, MgCl2 (final concentration: 10 mM) or Gpp(NH)p (final concentration: 1 mM), [^3H]MPPF (final concentration: 0.5 nM), dimethyl sulfoxide (final concentration: 1% (v/v)), and 50 mM Tris hydrochloride buffer (pH 7.4), was provided. Upon the addition of the membrane fraction, a reaction started, and the mixture was incubated at 37° C. for 30 min. After the incubation, the incubated mixture was suction filtered through a glass filter with a cell harvester. After washing the glass filter with ice-cooled buffer A, the radioactivity bound to the receptor was measured with a liquid scintillation counter. The binding detected in the presence of 10 μM WAY-100,635. was regarded as nonspecific binding.

[5] = target: T2, 5-HT1A receptor; conditions: receptor in G protein bound state (MgCl2 10 mM), 0.5 nM [3H]MPPF, swine hippocampus membrane; WO 2005/108389; read-out: High affinity; cited from earlier work

T1 sequence (P35363 whole entry): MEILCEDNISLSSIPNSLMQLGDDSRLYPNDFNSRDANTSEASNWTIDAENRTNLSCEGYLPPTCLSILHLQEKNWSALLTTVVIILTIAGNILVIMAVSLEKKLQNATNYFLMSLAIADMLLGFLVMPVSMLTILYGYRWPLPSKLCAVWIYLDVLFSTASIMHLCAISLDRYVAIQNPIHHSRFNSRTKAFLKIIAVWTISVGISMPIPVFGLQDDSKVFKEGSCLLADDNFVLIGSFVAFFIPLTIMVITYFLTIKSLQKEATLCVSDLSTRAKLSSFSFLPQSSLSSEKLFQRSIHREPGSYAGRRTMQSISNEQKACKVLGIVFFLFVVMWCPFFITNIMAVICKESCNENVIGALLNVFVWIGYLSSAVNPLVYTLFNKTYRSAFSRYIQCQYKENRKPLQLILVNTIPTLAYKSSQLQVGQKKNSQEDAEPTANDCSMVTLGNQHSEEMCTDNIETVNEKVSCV

Structure (SMILES): CNC(=O)Cc1ccc2ccn(C3CCN(CCc4ccccc4F)CC3)c2c1 [Compound 1, N-methyl-{1-[1-(2-fluorophenethyl)piperidin-4-yl]-1H-indol-6-yl}acetamide]
Serotonin 2A receptor antagonist activity (head twitch by tryptamine) [1]: excellent serotonin 2A receptor antagonist activity
Concentration at which 5HT excitotoxicity is inhibited ([2]; compound added 5 to 10 min before 5HT, FIG. 5, FIG. 6): not less than 0.1 nM

Structure (SMILES): NCCOB(c1ccccc1)c1ccccc1 [Compound 2-APB]
Inhibition of 5HT toxicity (survival rate) [2]: inhibition of 5HT excitotoxicity

Structure (SMILES): NCCc1c[nH]c2ccc(O)cc12 [Compound 5HT, serotonin]
5HT toxicity compared with glutamate toxicity ([3]; serum-free culture solution, FIG. 1B): comparable with glutamate toxicity
Toxicity of 5HT (survival rate of motor neuron cells) ([3]; three days culture, 30 ng/mL BDNF, FIG. 1A): showed toxicity in a concentration-dependent manner

L/H ratio [4]: 0.8
Structure (SMILES): CNC(=O)c1ccc2ccn(C3CCN(CCc4c(OC)ccc5c4OC(C)(C)CC5=O)CC3)c2c1 [Compound 9, 1-{1-[2-(7-methoxy-2,2-dimethyl-4-oxochroman-8-yl)ethyl]piperidin-4-yl}-N-methyl-1H-indole-6-carboxamide]
IC50 [5]: 0.2 nM

L/H ratio [4]: 0.8
Structure (SMILES): COc1ccc2c(c1CCN1CCC(n3ccc4ccc(C(N)=O)cc43)CC1)OC(C)(C)CC2=O [Compound 10, 1-{1-[2-(7-methoxy-2,2-dimethyl-4-oxochroman-8-yl)ethyl]piperidin-4-yl}-1H-indole-6-carboxamide]
IC50 [5]: 0.13 nM

L/H ratio [4]: 0.9
Structure (SMILES): COc1cc2oc(C)nc2cc1CCN1CCC(n2ccc3ccc(C(N)=O)cc32)CC1 [Compound 11, 1-{1-[2-(6-methoxy-2-methylbenzoxazol-5-yl)ethyl]piperidin-4-yl}-1H-indole-6-carboxamide]

L/H ratio [4]: 0.7
Structure (SMILES): COc1ccc2nc(C)oc2c1CCN1CCC(n2ccc3ccc(C(N)=O)cc32)CC1 [Compound 12, 1-{1-[2-(6-methoxy-2-methylbenzoxazol-7-yl)ethyl]piperidin-4-yl}-1H-indole-6-carboxamide]

L/H ratio [4]: 1.3
Structure (SMILES): COc1cc2onc(C)c2cc1CCN1CCC(n2ccc3ccc(C(N)=O)cc32)CC1 [Compound 13, 1-{1-[2-(6-methoxy-3-methylbenzo[d]isoxazol-5-yl)ethyl]piperidin-4-yl}-1H-indole-6-carboxamide]

L/H ratio [4]: 1.6
Structure (SMILES): COc1ccc2c(C)noc2c1CCN1CCC(n2ccc3ccc(C(N)=O)cc32)CC1 [Compound 14, 1-{1-[2-(6-methoxy-3-methylbenzo[d]isoxazol-7-yl)ethyl]piperidin-4-yl}-1H-indole-6-carboxamide]

L/H ratio [4]: 0.9
Structure (SMILES): COc1cc2c(cc1CCN1CCC(n3ccc4ccc(C(N)=O)cc43)CC1)OCCO2 [Compound 15, 1-{1-[2-(7-methoxy-2,3-dihydrobenzo[1,4]dioxin-6-yl)ethyl]piperidin-4-yl}-1H-indole-6-carboxamide]

Structure (SMILES): OC(c1ccccc1)C1CCN(CCc2ccccc2)CC1 (stereo not shown) [MDL-11939]
Inhibition of 5HT toxicity (survival rate) [2]: inhibited

Structure (SMILES): COc1ccccc1N1CCN(CCCCN2C(=O)c3ccccc3C2=O)CC1 [NAN-190]
Inhibition of 5HT toxicity (survival rate) [2]: inhibited
